≈ marks a conversion by molar mass, not a printed value.
Legend:
physchem = assay type: physicochemical; details: for solubility: 20 °C
Source text: (§1) The compositions herein include one or more solubilizers and/or co-solvents to help solubilize the HCA. […] Without being limited by theory, it is believed that the decreased solubility of an HCA at lower pH is due to reduced ability of the HCA to undergo the acid dissociation that forms the conjugate base species observed at higher pH levels. At pH 7, p-coumaric acid exists at approximately 99.6% in its base form; whereas at pH 3, the conjugate base form is only present at approximately […]. As a result of its relatively poor solubility, HCAs can form crystals in an aqueous, low-pH skin care composition. The HCA crystals may impart an undesirable feel to the composition during use (e.g., a rough or grainy feel). HCA crystal formation may also lead to a decrease in the efficacy of the HCA and/or other ingredients in the composition, and/or create an undesirable consumer perception of the skin care composition or manufacturer (e.g., poor quality).
In order to avoid the formation of HCA crystals in the present low-pH compositions, the HCA should have a solubility greater than the intrinsic solubility limit of the composition. […] In this example the HCA would likely crystalize. […] See, Bevill, et al., Polymorphic Cocrystals of Nutraceutical Compound p-Coumaric Acid with Nicotinamide: Characterization, Relative Solid-State Stability, and Conversion to Alternate Stoichiometries, Cryst. Growth Des. 2014, 14, 3, 1438-1448; 2014.

[1] = Fraction of p-coumaric acid present as conjugate base (acid dissociation) by pH; assay type: physicochemical; details: pH 3
Source text: as §1

Compound	solubility (physchem; pH 3, aqueous buffer) [mg/mL]	solubility (physchem; pH 7, aqueous buffer) [mg/mL]	conjugate base form present [1]	intrinsic solubility (physchem; pH 3.8) [mg/mL]
O=C(O)/C=C/c1ccc(O)cc1 [p-coumaric acid]	4 (≈ 24.4 mM)	~345 (≈ 2100 mM)	approximately 13.4%	
hydroxycinnamic acid [HCA]				6.8

Reference: US12036298B2, “Skin care composition and method for treating post-acne marks” (The Procter & Gamble Company, priority 2021, dated 2024)
